Experimental data from BindingDB's records for patent US12378251 (Shanghai Institute Of Materia Medica, 2025).

target: NEDD8-activating enzyme E1 regulatory subunit/NEDD8-activating enzyme E1 catalytic subunit (Human, UniProt Q8TBC4); assay: Test of Inhibiting NAE Enzyme Activity at the Molecular Level
Description: 1. Preliminary Evaluation Experiment of Inhibiting NAE Enzyme Activity at the Molecular Level by CompoundsHomogeneous Time-Resolved Fluorescence (HTRF) technology was used to detect the in vitro inhibitory effect of the compound on NAE enzyme activity. […] IC50 was calculated with a GraphPad software.

Sequence of NEDD8-activating enzyme E1 regulatory subunit/NEDD8-activating enzyme E1 catalytic subunit (Q13564 whole entry): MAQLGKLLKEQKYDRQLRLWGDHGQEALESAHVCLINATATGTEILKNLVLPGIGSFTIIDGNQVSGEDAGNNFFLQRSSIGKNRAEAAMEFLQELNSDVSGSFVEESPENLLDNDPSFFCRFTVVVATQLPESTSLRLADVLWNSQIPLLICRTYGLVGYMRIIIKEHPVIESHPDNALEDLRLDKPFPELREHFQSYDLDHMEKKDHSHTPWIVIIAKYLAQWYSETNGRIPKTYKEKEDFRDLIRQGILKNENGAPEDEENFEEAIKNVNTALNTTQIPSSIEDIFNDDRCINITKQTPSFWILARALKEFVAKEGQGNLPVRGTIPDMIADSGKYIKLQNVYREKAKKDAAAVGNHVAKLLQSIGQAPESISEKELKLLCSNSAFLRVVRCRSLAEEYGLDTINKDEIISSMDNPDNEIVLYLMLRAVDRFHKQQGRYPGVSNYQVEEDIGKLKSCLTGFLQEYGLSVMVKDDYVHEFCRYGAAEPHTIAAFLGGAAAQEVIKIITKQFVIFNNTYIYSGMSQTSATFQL
Sequence of NEDD8-activating enzyme E1 regulatory subunit/NEDD8-activating enzyme E1 catalytic subunit (Q8TBC4 whole entry): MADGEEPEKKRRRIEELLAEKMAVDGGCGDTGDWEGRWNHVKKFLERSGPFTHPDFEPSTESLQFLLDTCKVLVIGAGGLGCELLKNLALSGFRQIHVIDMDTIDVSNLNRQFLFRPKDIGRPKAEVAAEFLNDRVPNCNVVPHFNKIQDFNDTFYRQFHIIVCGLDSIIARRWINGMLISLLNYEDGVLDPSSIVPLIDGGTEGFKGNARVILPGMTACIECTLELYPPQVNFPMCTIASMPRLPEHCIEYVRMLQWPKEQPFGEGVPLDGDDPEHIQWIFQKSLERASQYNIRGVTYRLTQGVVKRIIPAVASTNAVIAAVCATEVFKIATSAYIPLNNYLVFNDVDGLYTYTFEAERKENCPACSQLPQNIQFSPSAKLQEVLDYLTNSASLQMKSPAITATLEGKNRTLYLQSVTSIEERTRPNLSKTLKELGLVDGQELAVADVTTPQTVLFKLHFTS

| IC50 [nM] | SMILES |
| --- | --- |
| < 100 | NS(=O)(=O)OCC1CC(n2nnc3c(NCc4ccccc4F)ncnc32)CC1O (centres undefined) [US12378251, Compound S2] |
| < 100 | NS(=O)(=O)OCC1CC(n2nnc3c(NCc4cccs4)ncnc32)CC1O (centres undefined) [US12378251, Compound S3] |
| < 100 | NS(=O)(=O)OCC1CC(n2nnc3c(NCc4ccco4)ncnc32)CC1O (centres undefined) [US12378251, Compound S4] |
| > 1000 | NS(=O)(=O)OCC1CC(n2nnc3c(Nc4n[nH]c5ccccc45)ncnc32)CC1O (centres undefined) [US12378251, Compound S17] |
| > 1000 | NS(=O)(=O)OCC1CC(n2nnc3c(Nn4ccc5ccccc54)ncnc32)CC1O (centres undefined) [US12378251, Compound S18] |

Second part, the compound before the results:

| SMILES | IC50 [nM] |
| --- | --- |
| NS(=O)(=O)OCC1CC(n2nnc3c(N[C@H]4CCc5ccccc54)ncnc32)CC1O (some centres undefined) [US12378251, Compound S1] | < 100 |
| NS(=O)(=O)OCC1CC(n2nnc3c(NCCc4ccccc4)ncnc32)CC1O (centres undefined) [US12378251, Compound S6] | < 100 |
| CCCCCCNc1ncnc2c1nnn2C1CC(O)C(COS(N)(=O)=O)C1 (centres undefined) [US12378251, Compound S8] | < 100 |
| NS(=O)(=O)OCC1CC(n2nnc3c(N[C@@H]4c5ccccc5C[C@@H]4O)ncnc32)CC1O (some centres undefined) [US12378251, Compound S9] | < 100 |
| NS(=O)(=O)OCC1CC(n2nnc3c(N[C@H]4CC5(CCNCC5)c5ccccc54)ncnc32)CC1O (some centres undefined) [US12378251, Compound S14] | < 100 |
| NS(=O)(=O)OC[C@@H]1C[C@@H](n2nnc3c(N[C@@H]4C[C@H]4c4ccc(F)c(F)c4)ncnc32)CC1O (some centres undefined) [US12378251, Compound S16] | > 1000 |
| NS(=O)(=O)OCC1CC(n2nnc3c(Nc4cnc5ccccn45)ncnc32)CC1O (centres undefined) [US12378251, Compound S19] | > 1000 |
| COC(=O)[C@H]1C=C[C@@H](Nc2ncnc3c2nnn3C2CC(O)C(COS(N)(=O)=O)C2)C1 (some centres undefined) [US12378251, Compound S20] | < 100 |
| NS(=O)(=O)OCC1CC(n2nnc3c(NC4CCCC4)ncnc32)CC1O (centres undefined) [US12378251, Compound S21] | > 1000 |
